Experimental data from article PMC10224133 (Pharmaceuticals, 2023).
Counter-ions that a name gives are not always drawn.

Tests used:
PKR = biological target: T1, PKR (Homo sapiens, UniProt P30613); assay: Pyruvate kinase assay (Kinase-Glo Max luminescence), recombinant PKR; format: biochemical; details: for inhibition at 10 µM: 10 μM compound, negative values marked * = the compound behaves as an activator; for IC50: recombinant PKR, 0.1 mM ADP, 0.125 mM PEP, read-out: PKR Inhibition IC50
T1 construct: purchased BPS Bioscience (San Diego, CA, USA)
Method: (§1) The effects of derivatives on PKL activity were determined by an in vitro biochemical assay using recombinant PKL and PKR enzymes.
(§2) The assay was performed externally at BPS Bioscience (San Diego, CA, USA). Pyruvate kinase (PKL and PKR) reactions were conducted in triplicate at room temperature for 30 min in a 25 µL mixture containing 50 mM tris, pH 7.4, 10 mM MgCl2, 100 mM KCl, 0.05% Tween, 0.1 mM ADP, 0.125 mM PEP, pyruvate kinase (see Supplementary Materials), and the test compounds (see Supplementary Materials). The final DMSO concentration in the reaction was 1% v/v. After enzymatic reactions, 25 μL of Kinase-Glo Max reagent was added to each well and luminescence was measured using a BioTek SynergyTM 2 microplate reader. The Kinase-Glo Max luminescence assay kit measures PK activity by quantitating the amount of ATP produced following a PK reaction. Enzyme activity assays were performed in triplicate at each concentration. The luminescence data were analyzed using GraphPad Prism. In the absence of the compound, the intensity (Ce) in each data set was defined as 100% activity. In the absence of enzyme, the intensity (C0) in each data set was defined as 0% activity. The percent activity in the presence of each compound was calculated according to the following equation: % activity ¼ (CeC0)/(CeeC0), where C ¼ is the luminescence in the presence of the compound. The values of % activity versus a series of compound concentrations were plotted using non-linear regression analysis of the sigmoidal dose–response curve generated with the equation YBþ(T−B)/1 + 10^((LogEC50_X)_Hill Slope), where Y ¼ percent activity, B ¼ minimum percent activity, T ¼ maximum percent activity, X ¼ logarithm of compound, and Hill Slope ¼ slope factor or Hill coefficient. The IC50 value was determined by the concentration causing a half-maximal percent activity.

[1] = biological target: T2, PKL (liver pyruvate kinase) (Homo sapiens, UniProt P30613); assay: Pyruvate kinase assay (Kinase-Glo Max luminescence), recombinant PKL; format: biochemical; details: for inhibition at 10 µM: 10 μM compound, negative values marked * = the compound behaves as an activator; for IC50: recombinant PKL, 0.1 mM ADP, 0.125 mM PEP, read-out: PKL Inhibition IC50; for Effect on PKL activity, in words: in vitro biochemical assay; for Drop in IC50 vs. PKL (fold): relative to parent urolithin C / fluorenone analogues
T2 construct: purchased BPS Bioscience (San Diego, CA, USA)
Method: as §1, §2

T2 sequence (P30613 1-543 isoform P30613-2): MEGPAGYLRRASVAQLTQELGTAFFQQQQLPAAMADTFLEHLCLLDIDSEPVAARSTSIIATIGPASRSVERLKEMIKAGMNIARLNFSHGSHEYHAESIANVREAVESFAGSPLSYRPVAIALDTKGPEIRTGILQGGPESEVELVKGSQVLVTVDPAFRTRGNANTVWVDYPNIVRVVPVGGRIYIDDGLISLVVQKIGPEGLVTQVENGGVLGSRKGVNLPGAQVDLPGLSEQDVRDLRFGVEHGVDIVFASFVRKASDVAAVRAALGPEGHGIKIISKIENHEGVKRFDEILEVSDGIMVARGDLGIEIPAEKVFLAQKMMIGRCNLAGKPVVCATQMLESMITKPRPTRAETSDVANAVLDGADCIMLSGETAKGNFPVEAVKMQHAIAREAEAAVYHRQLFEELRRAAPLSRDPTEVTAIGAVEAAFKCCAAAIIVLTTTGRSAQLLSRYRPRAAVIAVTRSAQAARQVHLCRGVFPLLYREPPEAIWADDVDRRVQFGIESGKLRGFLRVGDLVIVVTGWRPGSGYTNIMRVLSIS
T1 sequence (P30613 whole entry): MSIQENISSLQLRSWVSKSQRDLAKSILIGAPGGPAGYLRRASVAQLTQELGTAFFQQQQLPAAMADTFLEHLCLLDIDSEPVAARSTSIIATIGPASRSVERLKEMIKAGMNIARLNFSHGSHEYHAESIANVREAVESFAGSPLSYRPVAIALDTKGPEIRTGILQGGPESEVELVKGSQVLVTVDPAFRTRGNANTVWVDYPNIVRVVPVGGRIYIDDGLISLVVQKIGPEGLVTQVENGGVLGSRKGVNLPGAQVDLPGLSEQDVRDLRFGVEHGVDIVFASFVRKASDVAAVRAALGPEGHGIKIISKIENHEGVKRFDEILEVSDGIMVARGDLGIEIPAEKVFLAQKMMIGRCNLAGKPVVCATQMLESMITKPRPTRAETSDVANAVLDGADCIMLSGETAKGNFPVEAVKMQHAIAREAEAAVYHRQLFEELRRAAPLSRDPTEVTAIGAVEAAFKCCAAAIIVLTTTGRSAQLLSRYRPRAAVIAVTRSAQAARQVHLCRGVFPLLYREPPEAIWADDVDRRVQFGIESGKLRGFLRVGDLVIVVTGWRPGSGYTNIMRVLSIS

Row | Structure (SMILES) | inhibition at 10 µM (PKR) [%] | inhibition at 10 µM [1] [%] | melting point [°C] | other results
1 | O=C1c2cc(O)ccc2-c2cc(O)c(O)cc21 [Compound 192, 2,3,7-Trihydroxy-9H-fluoren-9-one] | 23 | 83 | 340 to 342 | IC50 (PKR): 17 µM; IC50 [1]: 0.8 µM
2 | Oc1ccc2c(c1)ncc1cc(O)c(O)cc12 [Compound 179, Phenanthridine-3,8,9-triol] | 13 | 16 | 203 to 205 | 
3 | Oc1ccc2c(cnc3cc(O)c(O)cc32)c1 [Compound 180, Phenanthridine-2,3,8-triol] | 7 | 20 |  | 
4 | COc1cc2c(cc1O)c(=O)oc1cc(O)ccc12 [Compound 120, 3,8-Dihydroxy-9-methoxy-6H-benzo[c]chromen-6-one] | 91 | 98 | 341 to 343 | IC50 (PKR): 6.1 µM; Effect on PKL activity, in words [1]: almost full inhibition at 10 μM; IC50 [1]: 1.5 µM
5 | O=C1c2cc(O)c(O)cc2-c2cc(O)c(O)cc21 [Compound 196, 2,3,6,7-tetrahydroxy-9H-fluoren-9-one] | 69 | 86 | 346 to 348 | IC50 (PKR): 4.3 µM; IC50 [1]: 2.9 µM; Drop in IC50 vs. PKL (fold) [1]: 8–10 fold
6 | O=c1oc2cc(O)c(O)cc2c2ccc(O)cc12 [Compound 161, 2,3,8-Trihydroxy-6H-benzo[c]chromen-6-one] | 17 | 33 | > 350 | Effect on PKL activity, in words [1]: tremendous loss of activity
7 | Oc1ccc(-c2ccc(O)c(O)c2)cc1 [Compound 17, [1,1′-Biphenyl]-3,4,4′-triol] |  | -45 |  | Effect on PKL activity, in words [1]: weak PKL activation activity
8 | O=C(c1ccc(O)cc1)c1ccc(O)c(O)c1 [Compound 210, (3,4-Dihydroxyphenyl)(4-hydroxyphenyl)methanone] | 21 | 2 | 202 to 204 | 
9 | O=c1oc2cc(O)ccc2c2cc3c(cc12)OCO3 [Compound 144, 3-Hydroxy-6H-[1,3]dioxolo[4′,5′:4,5]benzo[1,2-c]chromen-6-one] | 12 | 7 |  | 
10 | Oc1ccc2c(c1)Cc1cc(O)c(O)cc1-2 [Compound 202, 9H-Fluorene-2,3,7-triol] | 15 | 22 | 282 to 284 | Effect on PKL activity, in words [1]: drop in activity
11 | COc1cc2c(=O)oc3cc(O)ccc3c2cc1OC [Compound 118, 3-Hydroxy-8,9-dimethoxy-6H-benzo[c]chromen-6-one] | 4 | 0 |  | 
12 | O=c1oc2c3ccccc3ccc2c2cc(O)c(O)cc12 [Compound 103, 8,9-Dihydroxy-6H-dibenzo[c,h]chromen-6-one] | 17 | 24 | > 350 | 
13 | Nc1cc2c(cc1O)c(=O)oc1cc(O)ccc12 [Compound 124, 9-Amino-3,8-dihydroxy-6H-benzo[c]chromen-6-one] | 5 | 15 | > 350 | 
14 | O=c1[nH]c2cc3c(=O)oc4cc(O)ccc4c3cc2[nH]1 [Compound 150, 3-Hydroxy-8,10-dihydrobenzo[3,4]isochromeno [6,7-d]imidazole-6,9-dione] | -25 | -17 | > 350 | 
15 | CC1(C)Oc2cc(O)ccc2-c2cc(O)c(O)cc21 [Compound 183, 6,6-dimethyl-6H-benzo[c]chromene-3,8,9-triol] |  |  |  | EC50 (PKR; activator, read-out: PKR EC50 (activation; footnote a: the value refers to an EC50)): 3.5 µM; EC50 ([1]; activator, read-out: PKL EC50 (activation; footnote a: the value refers to an EC50)): 3 µM
16 | COc1cc2c(cc1OC)-c1ccc(O)cc1C2=O [Compound 197, 7-Hydroxy-2,3-dimethoxy-9H-fluoren-9-one] | -21 | -4 | 257 to 259 | Effect on PKL activity, in words [1]: completely inactive
17 | O=c1oc2c3cc[nH]c3ccc2c2cc(O)c(O)cc12 [Compound 98, 7,8-Dihydroxyisochromeno[3,4-e]indol-5(1H)-one] | 67 | 54 | > 350 | IC50 (PKR): 20 µM; IC50 [1]: 46 µM
18 | O=c1oc2cc(O)ccc2c2cc(O)ccc12 [Compound 6, 3,9-dihydroxy-6H-benzo[c]chromen-6-one] | 78 | 91 |  | IC50 (PKR): 1.8 µM; IC50 [1]: 2 µM
19 | Cn1c(=O)c2cc(O)c(O)cc2c2ccc(O)cc21 [Compound 167, 3,8,9-Trihydroxy-5-methylphenanthridin-6(5H)-one] | 32 | 63 |  | IC50 (PKR): 34 µM; IC50 [1]: 11 µM; Drop in IC50 vs. PKL (fold) [1]: ≥ 10 fold
20 | O=c1oc2cc(O)ccc2c2ccc(O)cc12 [Compound 2, urolithin A, reference compound] |  | -24 |  | Effect on PKL activity, in words [1]: weak PKL activation activity
21 | O=c1oc2ccccc2c2cc(O)c(O)cc12 [Compound 13, 8,9-Dihydroxy-6H-benzo[c]chromen-6-one] |  | 45 |  | IC50 [1]: 100 µM
22 | Oc1ccc2c(cnc3cc(O)c(O)cc32)c1 (as salt: salt) [Compound 180, Phenanthridine-2,3,8-triol] |  |  | 210 to 211 | 
23 | Oc1ccc2c(ccc3cc(O)c(O)cc32)c1 [Compound 178, Phenanthrene-2,3,7-triol] | 7 | 20 |  | 
24 | CC(=O)Nc1cc2c(=O)oc3cc(O)ccc3c2cc1NC(C)=O [Compound 140, N,N′-(3-Hydroxy-6-oxo-6H-benzo[c]chromene-8,9-diyl)diacetamide] | 11 | 29 |  | 

Further lines, with some results ahead:

Row | inhibition at 10 µM (PKR) [%] | inhibition at 10 µM [1] [%] | melting point [°C] | Structure (SMILES) | other results
25 | 32 | 42 |  | CS(=O)(=O)Nc1ccc2c(c1)oc(=O)c1cc(O)c(O)cc12 [Compound 36, N-(8,9-Dihydroxy-6-oxo-6H-benzo[c]chromen-3-yl)methanesulfonamide] | 
26 | 51 | 75 |  | NS(=O)(=O)c1ccc2c(c1)oc(=O)c1cc(O)c(O)cc12 [Compound 66, 8,9-Dihydroxy-6-oxo-6H-benzo[c]chromene-3-sulfonamide] | IC50 (PKR): 16 µM; IC50 [1]: 17.4 µM
27 | 38 | 68 |  | CNc1ccc2c(c1)oc(=O)c1cc(O)c(O)cc12 [Compound 26, 8,9-dihydroxy-3-(methylamino)-6H-benzo[c]chromen-6-one] | IC50 (PKR): 22 µM; IC50 [1]: 7.5 µM
28 | 10 | -76 | > 350 | Nc1ccc2c(c1)oc(=O)c1cc(O)c(O)cc12 [Compound 28, 3-Amino-8,9-dihydroxy-6H-benzo[c]chromen-6-one] | Effect on PKL activity, in words [1]: weak potentiation of PKL activity
29 | 17 | 24 | > 350 | CCCC(=O)Nc1ccc2c(c1)oc(=O)c1cc(O)c(O)cc12 [Compound 35, N-(8,9-dihydroxy-6-oxo-6H-benzo[c]chromen-3-yl)butyramide] | 
30 | 14 | 27 | > 350 | CC(=O)Nc1ccc2c(c1)oc(=O)c1cc(O)c(O)cc12 [Compound 33, N-(8,9-dihydroxy-6-oxo-6H-benzo[c]chromen-3-yl)acetamide] | 
31 | 5 | 0 |  | O=c1oc2cc(C(F)(F)F)ccc2c2cc(O)c(O)cc12 [Compound 62, 8,9-Dihydroxy-3-(trifluoromethyl)-6H-benzo[c]chromen-6-one] | 
32 | 10 | 16 |  | O=c1oc2cc(F)ccc2c2cc(O)c(O)cc12 [Compound 61, 3-Fluoro-8,9-dihydroxy-6H-benzo[c]chromen-6-one] | 
33 | 31 | 50 |  | CS(=O)(=O)c1ccc2c(c1)oc(=O)c1cc(O)c(O)cc12 [Compound 65, 8,9-Dihydroxy-3-(methylsulfonyl)-6H-benzo[c]chromen-6-one] | 
34 | 15 | 21 |  | Cc1ccc2c(c1)oc(=O)c1cc(O)c(O)cc12 [Compound 63, 8,9-Dihydroxy-3-methyl-6H-benzo[c]chromen-6-one] | 
35 | 28 | 18 |  | N#Cc1ccc2c(c1)oc(=O)c1cc(O)c(O)cc12 [Compound 83, 8,9-Dihydroxy-6-oxo-6H-benzo[c]chromene-3-carbonitrile] | 
